Measured values as given in patent US20080194551A1, “Acetylene Derivatives” (priority 2005, published 2008).
pIC50: −log10 of the molar value.

Columns and labels:
[1] = target: T1, hmGluR5 (Homo sapiens, UniProt P41594); assay: Inhibition of quisqualate-induced inositol phosphate turnover in hmGluR5 expressing cells; assay type: cell-based; conditions: agonist quisqualate, read-out: IC50 concentration, inhibition of quisqualate-induced inositol phosphate turnover
T1 construct: expressed in transfected cells
T1 sequence (P41594 21-1180 isoform P41594-2 limits assumed): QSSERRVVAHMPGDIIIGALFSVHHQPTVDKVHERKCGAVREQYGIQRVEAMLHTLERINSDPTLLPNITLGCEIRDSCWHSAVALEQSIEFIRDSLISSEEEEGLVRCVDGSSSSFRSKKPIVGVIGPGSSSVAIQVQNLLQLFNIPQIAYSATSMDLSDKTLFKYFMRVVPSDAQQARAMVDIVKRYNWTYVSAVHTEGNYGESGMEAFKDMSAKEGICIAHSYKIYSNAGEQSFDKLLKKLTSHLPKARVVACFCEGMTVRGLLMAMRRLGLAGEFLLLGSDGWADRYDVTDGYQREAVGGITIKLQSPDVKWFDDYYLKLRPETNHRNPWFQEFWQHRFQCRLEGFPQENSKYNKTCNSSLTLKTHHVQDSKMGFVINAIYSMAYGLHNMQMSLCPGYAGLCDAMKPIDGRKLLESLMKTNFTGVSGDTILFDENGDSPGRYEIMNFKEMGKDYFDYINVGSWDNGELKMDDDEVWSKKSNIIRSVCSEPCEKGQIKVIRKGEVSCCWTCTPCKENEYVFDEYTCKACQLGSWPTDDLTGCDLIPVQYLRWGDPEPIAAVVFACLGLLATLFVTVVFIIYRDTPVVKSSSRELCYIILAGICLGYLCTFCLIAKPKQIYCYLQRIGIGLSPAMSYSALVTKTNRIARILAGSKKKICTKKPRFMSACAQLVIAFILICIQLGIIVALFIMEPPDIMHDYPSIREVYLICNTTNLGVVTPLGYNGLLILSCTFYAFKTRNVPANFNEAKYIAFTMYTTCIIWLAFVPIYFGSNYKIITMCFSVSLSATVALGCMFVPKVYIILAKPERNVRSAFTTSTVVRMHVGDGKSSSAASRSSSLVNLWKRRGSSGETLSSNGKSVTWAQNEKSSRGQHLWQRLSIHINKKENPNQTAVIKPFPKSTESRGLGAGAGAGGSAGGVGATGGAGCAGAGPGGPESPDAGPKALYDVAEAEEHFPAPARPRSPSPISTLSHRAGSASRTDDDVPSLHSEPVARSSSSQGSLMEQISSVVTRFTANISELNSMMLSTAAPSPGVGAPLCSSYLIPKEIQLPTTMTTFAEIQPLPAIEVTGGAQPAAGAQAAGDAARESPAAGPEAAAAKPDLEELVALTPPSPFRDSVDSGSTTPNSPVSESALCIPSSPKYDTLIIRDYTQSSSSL
Excerpt: This can be determined in vitro for example at recombinant human metabotropic glutamate receptors, especially PLC-coupled subtypes thereof such as mGluR5, using different procedures like, for example, measurement of the inhibition of the agonist induced elevation of intracellular Ca^2+ concentration in accordance with L. P. Daggett et al., Neuropharm. Vol. 34, pages 871-886 (1995), P. J. Flor et al., J. Neurochem. Vol. 67, pages 58-63 (1996) or by determination to what extent the agonist induced elevation of the inositol phosphate turnover is inhibited as described by T. Knoepfel et al., Eur. J. Pharmacol. Vol. 288, pages 389-392 (1994), L. P. Daggett et al., Neuropharm. Vol. 67, pages 58-63 (1996) and references cited therein. Isolation and expression of human mGluR subtypes are described in U.S. Pat. No. 5,521,297. Selected agents of the invention show IC50 values for the inhibition of the agonist (e.g. glutamate or quisqualate) induced elevation of intracellular Ca2+ concentration or the agonist (e.g. glutamate or quisqualate) induced inositol phosphate turnover, measured in recombinant cells expressing hmGluR5a of about 1 nM to about 50 μM.
4-(3-Chloro-phenylamino)-1-(3-chloro-phenylethynyl)-cyclohexanol inhibits the quisqualate-induced inositol phosphate turnover in hmGluR5 expressing cells with an IC50 concentration of 4000 nM.

| pIC50 [1] | melting point | SMILES |
| --- | --- | --- |
| 5.40 |  | OC1(C#Cc2cccc(Cl)c2)CCC(Nc2cccc(Cl)c2)CC1 (centres unmarked) [Example 2.2, 4-(3-Chloro-phenylamino)-1-(3-chloro-phenylethynyl)-cyclohexanol] |
|  | 145 to 149 °C | OC1(C#Cc2cccc(Cl)c2)CCC(Nc2cc(Cl)cc(Cl)c2)CC1 (centres unmarked) [Example 2.6, 4-(3,5-Dichloro-phenylamino)-1-(3-chloro-phenylethynyl)-cyclohexanol] |
